We go through 13 compounds from patent US6833456B2, “Indolyl-urea derivatives of thienopyridines useful as antiangiogenic agents, and methods for their use” (Agouron Pharmaceuticals, Inc., priority 2002, dated 2004).

In test [1] the test system is human umbilical vein endothelial cells (HUVEC). Nature of the test: HUVEC+VEGF proliferation assay. It is filed as cell-based. The conditions noted are these: Homo sapiens, HUVEC, 72 h, VEGF 6 ng/mL, MTT. Here is the method: This assay determines the ability of a test compound to inhibit the growth factor-stimulated proliferation of human umbilical vein endothelial cells (“HUVEC”). HUVEC cells (passage 3-4, Clonetics, Corp.) were thawed into EGM2 culture medium (Clonetics Corp) in T75 flasks. Fresh EGM2 medium was added to the flasks 24 hours later. Four or five days later, cells were exposed to another culture medium (F12K medium supplemented with 10% fetal bovine serum (FBS), 60 μg/mL endothelial cell growth supplement (ECGS), and 0.1 mg/mL heparin). Exponentially-growing HUVEC cells were used in experiments thereafter. Ten to twelve thousand HUVEC cells were plated in 96-well dishes in 100 μl of rich, culture medium (described above). The cells were allowed to attach for 24 hours in this medium. The medium was then removed by aspiration and 105 μl of starvation media (F12K+1% FBS) was added to each well. After 24 hours, 15 μl of test agent dissolved in 1% DMSO in starvation medium or this vehicle alone was added into each treatment well; the final DMSO concentration was 0.1%. One hour later, 30 μl of VEGF (30 ng/mL) in starvation media was added to all wells except those containing untreated controls; the final VEGF concentration was 6 ng/mL. Cellular proliferation was quantified 72 hours later by MTT dye reduction, at which time cells were exposed for 4 hours MTT (Promega Corp.). Dye reduction was stopped by addition of a stop solution (Promega Corp.) and absorbance at 595 nm was determined on a 96-well spectrophotometer plate reader.

The target in another test is T1, PDGFRβ (Homo sapiens, UniProt P09619).
T1 construct: expressed in transfected cells; host or cells: porcine aorta endothelial (PAE) cells
T1 sequence (P09619 33-1106): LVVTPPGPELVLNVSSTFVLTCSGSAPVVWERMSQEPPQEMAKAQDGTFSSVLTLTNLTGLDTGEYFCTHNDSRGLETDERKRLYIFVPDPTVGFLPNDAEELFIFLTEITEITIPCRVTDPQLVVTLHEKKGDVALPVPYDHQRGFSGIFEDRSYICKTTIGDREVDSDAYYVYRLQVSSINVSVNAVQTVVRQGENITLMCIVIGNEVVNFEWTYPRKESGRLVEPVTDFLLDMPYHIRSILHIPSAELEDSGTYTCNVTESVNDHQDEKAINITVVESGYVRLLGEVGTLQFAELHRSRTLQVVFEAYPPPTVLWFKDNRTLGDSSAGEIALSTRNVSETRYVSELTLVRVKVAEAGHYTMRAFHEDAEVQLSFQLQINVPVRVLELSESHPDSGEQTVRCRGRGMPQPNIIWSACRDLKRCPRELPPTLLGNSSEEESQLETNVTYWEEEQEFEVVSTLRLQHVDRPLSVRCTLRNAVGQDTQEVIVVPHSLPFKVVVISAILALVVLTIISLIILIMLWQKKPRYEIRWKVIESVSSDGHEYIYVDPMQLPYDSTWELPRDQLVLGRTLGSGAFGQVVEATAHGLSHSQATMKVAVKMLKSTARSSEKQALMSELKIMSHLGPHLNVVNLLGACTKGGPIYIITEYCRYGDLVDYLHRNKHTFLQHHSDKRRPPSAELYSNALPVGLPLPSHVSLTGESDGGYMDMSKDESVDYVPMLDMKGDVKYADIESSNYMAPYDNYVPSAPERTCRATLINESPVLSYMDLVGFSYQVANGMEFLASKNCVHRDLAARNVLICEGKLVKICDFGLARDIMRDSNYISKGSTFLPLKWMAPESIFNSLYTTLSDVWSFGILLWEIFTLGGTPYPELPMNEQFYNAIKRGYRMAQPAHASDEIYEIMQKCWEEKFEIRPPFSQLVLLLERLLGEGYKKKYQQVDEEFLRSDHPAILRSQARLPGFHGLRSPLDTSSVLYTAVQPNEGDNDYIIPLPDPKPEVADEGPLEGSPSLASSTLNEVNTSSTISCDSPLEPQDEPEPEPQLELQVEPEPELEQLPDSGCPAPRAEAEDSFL
In words: PAE-PDGFRβ phosphorylation in PAE-PDGFRB cells assay. The conditions noted are these: PAE cells overexpressing human PDGFRβ, PDGF-BB stimulated; read-out: PAE PDGFR autophos IC50. It is filed as cell-based. As to the method: This assay determines the ability of a test compound to inhibit the autophosphorylation of PDGFRβ in porcine aorta endothelial (PAE)-PDGFRβ cells. PAE cells that overexpress human PDGFRβ were used in this assay. The cells were cultured in Ham's F12 media supplemented with 10% fetal bovine serum (FBS) and 400 ug/ml G418. Twenty thousands cells were seeded in each well of a 96-well plate in 50 μL of growth media and allowed to attach for 6 hours at 37° C. Cells were then exposed to the starvation media (Ham's F12 media supplemented with 0.1% FBS) for 16 hours. After the starvation period was over, 10 μL of test agent in 5% DMSO in starvation media were added to the test wells and 10 μL of the vehicle (5% DMSO in starvation media) were added into the control wells. The final DMSO concentration in each well was 0.5%. Plates were incubated at 37° C. for 1 hour and the cells were then stimulated with 1 μg/mL PDGF-BB (R & D System) in the presence of 2 mM Na3VO4 for 8 minutes. The cells were washed once with 1 mm Na3VO4 in HBSS and lysed by adding 50 μL per well of lysis buffer. One hundred μL of dilution buffer were then added to each well and the diluted cell lysate was transferred to a 96-well goat ant-rabbit coated plate (Pierce), which was pre-coated with Rabbit anti Human PDGFRβ antibody (Santa Cruz). The plates were incubated at room temperature for 2 hours and washed seven times with 1% Tween 20 in PBS. HRP-PY20 (Santa Cruz) was diluted and added to the plate for a 30-minute incubation. Plates were then washed again and TMB peroxidase substrate (Kirkegaard & Perry) was added for a 10-minute incubation. One hundred μL of 0.09 N H2SO4 was added into each well of the 96-well plate to stop the reaction. Phosphorylation status was assessed by spectrophotometer reading at 450 nm. IC50 values were calculated by curve fitting using a four-parameter analysis.

Test [2] addresses T2, unphosphorylated VEGF-R2Δ50 (FLVK) (Homo sapiens, UniProt P35968, DEL940-989/E990V).
T2 construct: VEGF-R2Δ50 contains residues 806-939 and 990-1171; made in house; host or cells: baculovirus/insect cell system
In words: VEGF-R2 coupled spectrophotometric assay, unphosphorylated construct (FLVK). It is filed as biochemical. The conditions noted are these: for inhibition at 0.05 µM: percent inhibition at 50 nM. The source says: This construct determines the ability of a test compound to inhibit tyrosine kinase activity. A construct (VEGF-R2Δ50) of the cytosolic domain of human vascular endothelial growth factor receptor 2 (VEGF-R2) lacking the 50 central residues of the 68 residues of the kinase insert domain was expressed in a baculovirus/insect cell system. Of the 1356 residues of full-length VEGF-R2, VEGF-R2Δ50 contains residues 806-939 and 990-1171, and also one point mutation (E990V) within the kinase insert domain relative to wild-type VEGF-R2. Autophosphorylation of the purified construct was performed by incubation of the enzyme at a concentration of 4 μM in the presence of 3 mM ATP and 40 mM MgCl2 in 100 mM HEPES, pH 7.5, containing 5% glycerol and 5 mM DTT, at 4° C. for 2 h. […] See Parast et al., Biochemistry, 37, 16788-16801 (1998).
The production of ADP from ATP that accompanies phosphoryl transfer was coupled to oxidation of NADH using phosphoenolpyruvate (PEP) and a system having pyruvate kinase (PK) and lactic dehydrogenase (LDH). The oxidation of NADH was monitored by following the decrease of absorbance at 340 nm ([…]=6.22 cm^−1 mM^−1) using a Beckman DU 650 spectrophotometer. Assay conditions for phosphorylated VEGF-R2Δ50 (indicated as FLVK-P in the tables below) were the following: 1 mM PEP; 250 μM NADH; 50 units of LDH/mL; 20 units of PK/mL; 5 mM DTT; […]; 1 mM ATP; and 25 mM MgCl2 in 200 mM HEPES, pH 7.5. Assay conditions for unphosphorylated VEGF-R2Δ50 (indicated as FLVK in the tables) were the following: 1 mM PEP; 250 μM NADH; 50 units of LDH/mL; 20 units of PK/mL; 5 mM DTT; […]; 3 mM ATP; and 60 mM MgCl2 and 2 mM MnCl2 in 200 mM HEPES, pH 7.5. Assays were initiated with 5 to 40 nM of enzyme. Ki values were determined by measuring enzyme activity in the presence of varying concentrations of test compounds. The percent inhibition at 50 nm (% inhibition@ 50 nm) was determined by linear least-squares regression analysis of absorbance as a function of time. The binding inhibitions were fitted to equation as described by Morrison. The data were analyzed using Enzyme Kinetic and Kaleidagraph software.

SMILES strings stand for the structures. pIC50, pKi: −log10 of the molar value. “And” between values parts separate entries of the source, which are not always exact repeats. Identical values can stand only once. Bounds are passed on as bounds.

T2 sequence (P35968 with tags, fused parts or gaps DEL940-989/E990V limits assumed): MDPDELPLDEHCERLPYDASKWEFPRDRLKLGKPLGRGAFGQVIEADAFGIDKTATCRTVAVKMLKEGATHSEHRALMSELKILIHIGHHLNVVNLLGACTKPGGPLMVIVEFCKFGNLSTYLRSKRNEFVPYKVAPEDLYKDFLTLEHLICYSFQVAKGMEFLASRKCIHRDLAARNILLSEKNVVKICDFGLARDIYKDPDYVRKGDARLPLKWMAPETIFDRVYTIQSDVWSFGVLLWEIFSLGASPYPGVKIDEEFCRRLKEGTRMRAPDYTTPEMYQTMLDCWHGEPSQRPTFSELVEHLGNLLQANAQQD

As to `CNC(=O)n1c(C)cc2cc(Nc3ccnc4cc(C(=O)N5CC[C@H](OC)C5)sc34)ccc21` [Example 1g, 5-[2-(3S-Methoxy-pyrrolidine-1-carbonyl)-thieno[3,2-b]pyridin-7-ylamino]-2-methyl-indole-1-carboxylic acid methylamide], the pIC50 (usually the negative decadic logarithm of the IC50, by convention in mol/L) in test [1] is 9.00; on PDGFRβ, 7.02 and 6.82.

`C#CCNC(=O)n1c(C)cc2cc(Nc3ccnc4cc(C(=O)N5CC[C@H](O)C5)sc34)ccc21` [Example 1j, 5-[2-(3S-Hydroxy-pyrrolidine-1-carbonyl)-thieno[3,2-b]pyridin-7-ylamino]-2-methyl-indole-1-carboxylic acid prop-2-ynylamide]: in test [2], the pKi (usually −log10 of the Ki, conventionally taken in molar units) is 9.14 and the inhibition (as a rule, the change of the read-out against control, counted positive when it falls) at 0.05 µM came out at 96%. The pIC50 in test [1] was 9.83.

`CNC(=O)n1c(C)cc2cc(Nc3ccnc4cc(C(=O)N5C[C@H](OC)[C@@H](OC)C5)sc34)ccc21` [Example 1r, 5-[2-(3S,4S-Dimethoxy-pyrrolidine-1-carbonyl)-thieno[3,2-b]pyridin-7-ylamino]-2-methyl-indole-1-carboxylic acid methylamide]: in test [2], the pKi is 9.19 and the inhibition at 0.05 µM was 93%. Further, the pIC50 in test [1] is 9.52. Moreover, the pIC50 on PDGFRβ is 6.81 and 6.92.

As for `Cc1cc2cc(Nc3ccnc4cc(C(=O)N5C[C@H](O)C[C@H]5C(C)(C)O)sc34)ccc2n1C(=O)NC1CC1` [Example 3e], in test [2], the pKi was 8.68 and the inhibition at 0.05 µM was found to be 87%. In addition, the pIC50 in test [1] is 8.31.

As for `CNC(=O)n1c(C)cc2cc(Nc3cccc4cc(C(=O)N5C[C@H](O)C[C@H]5CO)sc34)ccc21` [Example 3i, 5-[2-((2S,4R)-4-Hydroxy-2-hydroxymethyl-pyrrolidine-1-carbonyl)-benzo[b]thiophen-7-ylamino]-2-methyl-indole-1-carboxylic acid methylamide], in test [2], the pKi is 8.38 and the inhibition at 0.05 µM was determined as 74%. The negative-log IC50 (pIC50) in test [1] was 8.26.

In test [2], `CO[C@H]1CCN(C(=O)c2cc3nccc(Oc4ccc5c(c4)cc(C)n5C(=O)NCC#CC4CC4)c3s2)C1` [Example 4i, 5-[2-(3S-Methoxy-pyrrolidine-1-carbonyl)-thieno[3,2-b]pyridin-7-yloxy]-2-methyl-indole-1-carboxylic acid (3-cyclopropyl-prop-2-ynyl)-amide] gave a pKi of 8.81 and an inhibition at 0.05 µM of 97%. The pIC50 in test [1] was 9.24. Also, at PDGFRβ, the pIC50 is 8.26.

In test [2], `CO[C@@H]1CCN(C(=O)c2cc3nccc(Oc4ccc5c(c4)cc(C)n5C(=O)NCC#CC4CC4)c3s2)C1` [Example 4m, 5-[2-(3R-Methoxy-pyrrolidine-1-carbonyl)-thieno[3,2-b]pyridin-7-yloxy]-2-methyl-indole-1-carboxylic acid (3-cyclopropyl-prop-2-ynyl)-amide] had a pKi of 9.57. Moreover, the inhibition at 0.05 µM in test [2] amounted to 99%. The pIC50 in test [1] is 9.43; at PDGFRβ, 8.42.

As for `CNC(=O)n1c(C)cc2c(F)c(Oc3ccnc4cc(C(=O)N5CCC[C@H]5COC)sc34)ccc21` [Example 5a, 4-Fluoro-5-[2-(2S-methoxymethyl-pyrrolidine-1-carbonyl)-thieno[3,2-b]pyridin-7-yloxy]-2-methyl-indole-1-carboxylic acid methylamide], the pKi in test [2] was 9.80. In test [2], this compound came in with an inhibition at 0.05 µM of 99%. Besides, the pIC50 was 9.85 in test [1] and 8.42 on PDGFRβ.

`CNC(=O)n1c(C)cc2c(F)c(Oc3ccnc4cc(C(=O)N5CC[C@H](O)C5)sc34)ccc21` [Example 5i, 4-Fluoro-5-[2-(3S-hydroxy-pyrrolidine-1-carbonyl)-thieno[3,2-b]pyridin-7-yloxy]-2-methyl-indole-1-carboxylic acid methylamide]: in test [2], the pKi was 9.28 and at 0.05 µM the inhibition was 97%. For the same compound, in test [1], the pIC50 is 9.96.

In test [2], `C#CCNC(=O)n1c(C)c(Cl)c2c(F)c(Oc3ccnc4cc(C(=O)N5CC[C@H](OC)C5)sc34)ccc21` [Example 6a, 3-Chloro-4-fluoro-5-[2-(3S-methoxy-pyrrolidine-1-carbonyl)-thieno[3,2-b]pyridin-7-yloxy]-2-methyl-indole-1-carboxylic acid prop-2-ynylamide] gave a pKi of 9.37 and an inhibition at 0.05 µM of 98%. The pIC50 in test [1] is 9.37. The pIC50 at PDGFRβ is 7.54.

On to `CNC(=O)c1c(C)n(C(=O)NC)c2ccc(Oc3ccnc4cc(C(=O)N5CC[C@@H](N(C)C)C5)sc34)cc12` [Example 8a, 5-[(2-{[(3R)-3-(Dimethylamino)pyrrolidin-1-yl]carbonyl}thieno[3,2-b]pyridin-7-yl)oxy]-N,N′,2-trimethyl-1H-indole-1,3-dicarboxamide], for which, in test [2], the pKi was 8.34 and at 0.05 µM the inhibition was 68%. For the same compound, at PDGFRβ, the pIC50 is less than 6.00.

In the case of `Cc1cc2cc(Oc3ccnc4cc(C(=O)N5CC[C@@H](N(C)C)C5)sc34)ccc2n1C(=O)NCCCO` [Example 8i, 5-[(2-{[(3R)-3-(Dimethylamino)pyrrolidin-1-yl]carbonyl}thieno[3,2-b]pyridin-7-yl)oxy]-N-(3-hydroxypropyl)-2-methyl-1H-indole-1-carboxamide], in test [2], the pKi was 9.32 and 0.05 µM produced 99% inhibition. The pIC50 in test [1] was 9.77. Also, the pIC50 on PDGFRβ was 7.59 and 7.47.

In test [2], `CNC(=O)n1c(C)cc2cc(Nc3ncnc4sc(C(=O)N5CCC[C@H]5COC)cc34)ccc21` [Example 12b, 5-[6-(2-Methoxymethyl-pyrrolidine-1-carbonyl)-thieno[2,3-b]pyrimidin-4-ylamino]-2-methyl-indole-1-carboxylic acid methylamide] had a pKi of 6.85 and an inhibition at 0.05 µM of 5%. Further, the pIC50 at PDGFRβ was less than 6.00.
